According to patent publication US20160090397A1, “Se-Adenosyl-L-Selenohomocysteine Selenoxide As A Modulator Of Methyltransferase And Other Activities” (priority 2014, published 2016):
Entries after “also recorded” stand apart in the source; their conditions may differ.

Assays:
[1] = Reduction of selenoxide/sulfoxide by thiols and thioethers at ambient temperature (C18 HPLC); assay type: physicochemical; settings: for reduction by glutathione (GSH) / reduction by cysteine: ambient temperature; for reduction by glutathione (GSH): C18 HPLC
From the text: The sulfoxide SAHO analog was not reduced under these biological conditions with glutathione (GSH) or cysteine. The reduction of sulfoxides generally requires more forcing conditions.

[2] = target: T1, catechol-O-methyltransferase (COMT) (Homo sapiens, UniProt P21964); experiment: Reduction upon incubation with methyltransferase COMT; assay type: biochemical
T1 sequence (P21964 1-271): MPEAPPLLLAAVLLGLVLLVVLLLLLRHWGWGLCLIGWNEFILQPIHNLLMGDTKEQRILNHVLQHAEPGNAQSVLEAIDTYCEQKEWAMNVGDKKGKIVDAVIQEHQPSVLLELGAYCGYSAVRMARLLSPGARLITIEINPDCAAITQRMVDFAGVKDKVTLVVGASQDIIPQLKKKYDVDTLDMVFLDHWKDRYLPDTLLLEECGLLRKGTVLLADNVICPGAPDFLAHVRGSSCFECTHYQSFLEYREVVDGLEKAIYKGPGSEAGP
Description: (§1) However, SeAHO was not reduced upon incubation with the non-methyltransferase protein lysozyme (data not shown). […] The reduction of SeAHO by methyltransferases may result in the oxidation or modification of these enzymes. This property could be exploited to identify methyltransferases that are reactive with SeAHO, or, depending on the site of oxidation, this process may modulate the activities of methyltransferases. In other words, SeAHO may act as a covalent inhibitor (reactive or suicide inhibitor) or activator of these methyltransferases.

[3] = target: T1, catechol-O-methyltransferase (COMT); settings: in vitro; cited from earlier work
[4] = target: T2, phenylethanolamine N-methyltransferase (PNMT) (Homo sapiens, UniProt P11086); settings: in vitro; cited from earlier work
T2 sequence (P11086 1-282): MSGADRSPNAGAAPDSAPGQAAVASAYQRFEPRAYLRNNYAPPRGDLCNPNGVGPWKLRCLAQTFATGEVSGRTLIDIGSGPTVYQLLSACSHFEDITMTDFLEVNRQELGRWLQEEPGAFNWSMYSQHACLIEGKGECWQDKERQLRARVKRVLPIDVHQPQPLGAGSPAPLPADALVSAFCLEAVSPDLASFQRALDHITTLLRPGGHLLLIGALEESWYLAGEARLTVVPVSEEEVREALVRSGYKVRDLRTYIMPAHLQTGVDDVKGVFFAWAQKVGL

[5] = target: histamine N-methyltransferase (HMT) (Homo sapiens, UniProt P50135); settings: in vitro; cited from earlier work
[6] = target: protein methyltransferase II (Homo sapiens, UniProt P22061); settings: in vitro; cited from earlier work
[7] = test system: viral mRNA methyltransferases; settings: in vitro; cited from earlier work
[8] = target: E. coli cyclopropane fatty acid synthase (Escherichia coli, UniProt P0A9H7); settings: in vitro; cited from earlier work
[9] = Stability of SeAHO in aqueous solutions (HPLC, proton NMR); assay type: physicochemical
Description: Characterization of selenoxide SeAHO in an aqueous environment was of greater biological significance.
The selenoxide SeAHO generally appeared to be a 60:40 mixture by ^1H NMR in 50 mM phosphate buffers of D2O at measured pH's of 3 and 7.

[10] = target: T3, thiopurine methyltransferase (TPMT) (Homo sapiens, UniProt P51580); experiment: Reduction upon incubation with methyltransferase TPMT; assay type: biochemical
T3 sequence (P51580 1-245): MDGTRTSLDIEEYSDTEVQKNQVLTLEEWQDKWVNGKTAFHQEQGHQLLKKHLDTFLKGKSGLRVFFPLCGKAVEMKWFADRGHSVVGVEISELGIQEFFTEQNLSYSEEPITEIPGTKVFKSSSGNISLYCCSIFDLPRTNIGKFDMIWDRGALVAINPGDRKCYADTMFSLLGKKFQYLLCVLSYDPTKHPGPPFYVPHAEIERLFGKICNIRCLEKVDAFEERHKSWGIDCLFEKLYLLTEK
Description: as §1

[11] = test system: lysozyme; experiment: Incubation with non-methyltransferase protein lysozyme; assay type: biochemical; settings: data not shown
Description: as §1

[12] = target: T1, catechol-O-methyltransferase (COMT); experiment: COMT-catalysed oxidation of epinephrine to adrenochrome with SeAHO; assay type: biochemical; settings: various COMT concentrations
From the text: This reactivity (redox reaction) conferred by SeAHO can be exploited to oxidize substrate compounds in a selective and specific manner.

[13] = target: T3, thiopurine methyltransferase (TPMT); experiment: Oxidation of thionitrobenzoate (TNB), Se-SAHO as TPMT substrate (absorbance); assay type: biochemical
From the text: FIG. 1 depicts an absorbance spectrum for Se—SAHO as a thiopurine methyltransferase (TPMT) substrate wherein the oxidation of thionitrobenzoate (TNB) by H2O2 causes a clear shift in absorbance maxima from ˜410 nm to ˜325 nm.

Sequence of histamine N-methyltransferase (HMT) (P50135 whole entry, species assumed): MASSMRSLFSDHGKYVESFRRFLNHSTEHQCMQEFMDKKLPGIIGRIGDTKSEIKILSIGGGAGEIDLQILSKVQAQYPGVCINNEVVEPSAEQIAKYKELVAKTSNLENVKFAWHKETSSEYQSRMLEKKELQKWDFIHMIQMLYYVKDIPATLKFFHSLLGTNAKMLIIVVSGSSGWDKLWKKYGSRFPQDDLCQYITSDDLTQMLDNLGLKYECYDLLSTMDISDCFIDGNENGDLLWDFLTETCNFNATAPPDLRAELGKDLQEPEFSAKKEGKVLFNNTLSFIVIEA
Sequence of E. coli cyclopropane fatty acid synthase (P0A9H7 whole entry): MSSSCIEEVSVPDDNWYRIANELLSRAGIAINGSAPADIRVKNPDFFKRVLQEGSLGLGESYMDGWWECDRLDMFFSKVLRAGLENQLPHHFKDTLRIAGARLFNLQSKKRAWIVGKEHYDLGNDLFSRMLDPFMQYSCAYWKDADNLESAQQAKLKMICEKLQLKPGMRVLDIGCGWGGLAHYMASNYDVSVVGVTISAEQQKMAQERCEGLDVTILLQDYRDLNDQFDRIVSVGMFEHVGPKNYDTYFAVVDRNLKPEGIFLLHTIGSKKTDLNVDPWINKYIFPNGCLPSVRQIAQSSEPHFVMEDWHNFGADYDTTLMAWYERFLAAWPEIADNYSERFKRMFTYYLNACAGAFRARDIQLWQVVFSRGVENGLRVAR
Sequence of protein methyltransferase II (P22061 whole entry): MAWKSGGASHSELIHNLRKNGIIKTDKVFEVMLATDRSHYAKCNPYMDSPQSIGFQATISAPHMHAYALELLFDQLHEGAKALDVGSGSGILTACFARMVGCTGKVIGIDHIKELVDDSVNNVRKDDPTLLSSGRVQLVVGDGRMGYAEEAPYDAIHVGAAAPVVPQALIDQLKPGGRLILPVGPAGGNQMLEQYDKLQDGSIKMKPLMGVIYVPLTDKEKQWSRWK

Compound: Nc1ncnc2c1ncn2[C@@H]1O[C@H](C[S+]([O-])CC[C@H](N)C(=O)O)[C@@H](O)[C@H]1O (some centres unmarked) [SAHO]
- reduction by glutathione (GSH) [1]: not reduced
- reduction by cysteine ([1]; data not shown): not reduced
- reduction upon incubation with COMT [2]: remains oxidized
- inhibition of COMT [3]: inhibitor
- inhibition of PNMT [4]: inhibitor
- inhibition of HMT [5]: inhibitor
- inhibition of protein methyltransferase II [6]: inhibitor
- inhibition of viral mRNA methyltransferases [7]: inhibitor
- inhibition of E. coli cyclopropane fatty acid synthase [8]: inhibitor

Compound: Nc1ncnc2c1ncn2[C@@H]1O[C@H](C[Se](=O)CC[C@H](N)C(=O)O)C(O)[C@@H]1O (some centres unmarked) [SeAHO, Se-Adenosylselenohomocysteine selenoxide]
- decomposition by HPLC ([9]; after 2 weeks or when prepared in pure deionized water): some decomposition was observed
- decomposition by NMR ([9]; pH 12 phosphate buffer): only a very small amount of decomposition was observed
- stability to hydrolysis of the C1′-adenine bond / degradation ([9]; phosphate buffered aqueous solutions, pH 3-12, ambient temperature, at least three hours, HPLC or proton NMR): completely stable
- reduction by glutathione (GSH) [1]: readily reduced
- reduction by cysteine ([1]; data not shown): also reduced; also recorded: readily reduced
- reduction by thioether methionine ([1]; data not shown): not by thioethers methionine
- reduction upon incubation with COMT [2]: reduced to Se-adenosyl-L-selenohomocysteine (SeAH)
- reduction upon incubation with TPMT [10]: reduced to Se-adenosyl-L-selenohomocysteine (SeAH)
- reduction upon incubation with lysozyme [11]: not reduced
- COMT-catalysed oxidation of epinephrine to adrenochrome [12]: reacts with epinephrine to form adrenochrome at a rate dependent on COMT concentration; also recorded: catalyzes the oxidation of epinephrine with SeAHO and the production of adrenochrome and SeAH

Compound: Se-Adenosylselenohomocysteine selenoxide [SeAHO]
- oxidation of TNB (shift in absorbance maxima) [13]: able to oxidize TNB
